Measured values: paper PMC5382891 (Scientific Reports, 2017)
Where two headings read alike, the source gives them in different places. Ends that are not written are not given here.

How the values were obtained:
[1] = biological target: T1, human recombinant NOP receptor (Homo sapiens, UniProt P41146); assay: cell-based; type: cell-based
T1 construct: expressed in transfected cells

mouse vas deferens = assay: electrically stimulated mouse vas deferens bioassay; conditions: Table 2; for mVD Emax ± SEM: percent of the control twitch, mean ± SEM of at least 4 separate experiments, footnote a: concentration response curve incomplete due to low potency
Description: The experiments were performed on the mouse vas deferens (mVD). The tissues were taken from male CD-1 mice 16–18 g (Harlan, Ud, Italy). Mice were housed in 425 × 266 × 155 mm cages (Techniplast, Mi, Italy), 8 per cage, all under standard conditions (22 °C, 55% humidity, 12 h light/dark cycle, light on at 7:00 h), with food for mice (4RF, Mucedola, Mi, Italy) and water ad libitum. A mouse red house (Tecniplast, Va, Italy) and nesting materials were present in each cage for mice. The day of the experiment the animals were sacrificed with CO2 overdose. The experimental protocol was approved by the Ethical Committee for the Use of Laboratory Animals of the University of Ferrara and by the Italian Ministry of Health (authorization number 9927, 19/04/2013). The animals were treated in accordance with the European Communities Council directives (2010/63/EU) and national regulations (D.L. 26/2014). Bioassay experiments were performed as previously described. The tissues were suspended in 5 ml organ bath containing Krebs solution (composition in mM: NaCl 118.5, KCl 4.7, KH2PO4 1.2, NaHCO3 25, CaCl2 2.5, glucose 10). The Krebs solution was oxygenated with 95% O2 and 5% CO2. The temperature was set at 33 °C. At resting tension 0.3 g was applied to the mVD. […] The electrically evoked contractions were measured isotonically by means of Basile strain gauge transducers (Basile 7006; srl Ugo Basile, Varese, Italy) and recorder with a computer – based acquisition system (Power Lab 8, ADInstruments, Colorado Springs, USA). […]
The pharmacological terminology adopted in this paper is consistent with IUPHAR recommendations. All data are expressed as the mean ± standard error of the mean (SEM) of n experiments. […] In calcium mobilization experiments, maximum change in fluorescence, expressed as percent over the baseline fluorescence, was used to determine agonist response. Electrically stimulated tissues data are expressed as % of the control twitch induced by electrical field stimulation. […]

T1 sequence (P41146 whole entry): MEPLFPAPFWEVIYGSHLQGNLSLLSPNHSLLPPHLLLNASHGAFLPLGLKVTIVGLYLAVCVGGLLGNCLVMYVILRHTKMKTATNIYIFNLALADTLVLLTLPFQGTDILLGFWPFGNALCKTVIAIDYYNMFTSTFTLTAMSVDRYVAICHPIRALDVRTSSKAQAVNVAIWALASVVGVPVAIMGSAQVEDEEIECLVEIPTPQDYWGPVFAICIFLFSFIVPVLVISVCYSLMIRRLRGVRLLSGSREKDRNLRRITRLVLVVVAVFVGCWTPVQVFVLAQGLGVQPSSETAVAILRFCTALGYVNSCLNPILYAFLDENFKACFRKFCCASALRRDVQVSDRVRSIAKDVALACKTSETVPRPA

Substance: FGGFTGARKSAR-NH2 [compound 10, N/OFQ(1-12)-NH2] [listing 1 of 2 here]
- EC50 ([1]; Ca2+ mobilization pEC50 (CL95%)): 0.2 nM

Substance: FGGFTGARKSAR-NH2 [compound 10, N/OFQ(1-12)-NH2] [listing 2 of 2 here]
- Emax ([1]; CHO, read-out: Ca2+ mobilization Emax ± SEM, SEM): 204 ± 16%

Substance: N/OFQ(1-11)-NH2 (FGGFTGARKSA-NH2; UniProt Q13519 130-140, looked up, fragment) [compound 12]
- Ca2+ mobilization Emax ± SEM ([1]; SEM): 182 ± 34%
- mVD Emax ± SEM (mouse vas deferens; SEM): 65 ± 5%^a

Substance: N/OFQ(2-12)-NH2 [compound 14]
- Ca2+ mobilization Emax ± SEM [1]: Inactive
- Ca2+ mobilization pEC50 (CL95%) [1]: Inactive
- mVD pEC50 (CL95%) (mouse vas deferens; electrically stimulated mouse vas deferens, Krebs solution, 33 °C, cumulative concentration response curves, mean of at least 4 separate experiments, CL95% in brackets, * P < 0.05 versus N/OFQ(1-13)-NH2): inactive
- mVD Emax ± SEM (mouse vas deferens): inactive

Substance: compound 15: heterodimeric derivative N/OFQ(1-12)-N/OFQ(2-12), 2,2′-disulfanediyldiethanamine spacer (chain 1 FGGFTGARKSAR; chain 2 GGFTGARKSAR)
- Ca2+ mobilization pEC50 (CL95%) [1]: 9.49 (9.07–9.91)
